One compound from patent publication US6545020B1, “Farnesyl Protein transferase inhibitors with in vivo radiosensitizing properties” (Janssen Pharmaceutica, N.V., priority 1998, dated 2003) can be followed below.

One assay relates to U251. As to the kind of experiment: Radiosensitization of radioresistant human glioma cell line U251 (surviving fraction after 2 Gy). Conditions: 0.4 nM, 48 h prior to irradiation (2 Gy). In kind it is cell-based. How it is done:
(§1) Radioresistant human glioma cell lines (SF763, U87, U251) were treated with compound 75, 48 h prior to irradiation (2 Gy). The dose administered was 0.4 nM for U251 and 2 nM for SF763 and U87.

The test system of another assay is SF763. Kind of assay: Radiosensitization of radioresistant human glioma cell line SF763 (surviving fraction after 2 Gy). To be noted: 2 nM, 48 h prior to irradiation (2 Gy). In kind it is cell-based. Here is the method:
as §1

In the next assay the test system is U87. Kind of assay: Radiosensitization of radioresistant human glioma cell line U87 (surviving fraction after 2 Gy). It counts as cell-based. Conditions: 2 nM, 48 h prior to irradiation (2 Gy). How it is done: as §1
The test system of assay [1] is LoVo human colon tumor cells. As to the kind of experiment: LoVo human colon tumor xenograft in athymic nude mice, oral treatment with or without single 7 Gy irradiation on day 32. It counts as in vivo. From the text:
Male athymic nude mice weighing approximately 22 to 25 g were inoculated subcutaneously in the inguinal region with 1×10^6 of LoVo human colon tumor cells (LoVo cells) on day 0. After three weeks to allow tumors to become established (diameter approximately 0.5 to 1 cm), treatment was started with solvent or compound 75 via the oral route, and either with or without a single shot irradiation on day 32. Parameters for activity were tumor growth rate and weight of the tumors at day 42.
Compound 75 was dissolved in water and acidified with 1 N HCl solution to pH 2.5 and administered orally (po) as 0.1 ml of compound solution per 10 g mouse body weight twice daily (bid). The dose administered was either 50 or 100 mg compound per kg bodyweight; treatment either preceded irradiation (days 22-32), followed irradiation (days 32-42) or continued throughout the duration of the experiment (days 22-42).
In each arm of the experiment 16 animals were included. The column ‘tumor (g)’ contains the median of the tumor weight of the animals sacrificed at day 42 of the experiment. FIGS. 1 and 2 represent the observed data in graphical form.

SMILES strings stand for the structures.

In the case of `Cn1cncc1[C@@](N)(c1ccc(Cl)cc1)c1ccc2c(c1)c(-c1cccc(Cl)c1)cc(=O)n2C` [Compound 75, (+)-(R)-6-[amino(4-chlorophenyl)(1-methyl-1H-imidazol-5-yl)methyl]-4-(3-chloro-phenyl)-1-methyl-2(1H)-quinolinone], the “decrease of surviving fraction after irradiation” value in the assay with U251 is 25%; with SF763, “about 55%”; with U87, “about 55%”. Besides, the “tumor (g), median tumor weight at day 42” value in assay [1] (Group II, 50 mpk po bid, day 22-42, irradiation none) was found to be 0.255 g; in assay [1] (Group III, 50 mpk po bid, day 22-32, irradiation none), 0.273 g; in assay [1] (Group IV, 50 mpk po bid, day 32-42, irradiation none), 0.295 g; in assay [1] (Group IX, 50 mpk po bid, day 22-32, irradiation 7 Gy on day 32), 0.156 g; in assay [1] (Group V, 100 mpk po bid, day 22-42, irradiation none), 0.205 g; in assay [1] (Group VI, 100 mpk po bid, day 22-32, irradiation none), 0.234 g. Further, the “tumor (g), median tumor weight at day 42” value in assay [1] (Group VII, 100 mpk po bid, day 32-42, irradiation none) is 0.277 g; in assay [1] (Group VIII, 50 mpk po bid, day 22-42, irradiation 7 Gy on day 32), 0.207 g; in assay [1] (Group X, 50 mpk po bid, day 32-42, irradiation 7 Gy on day 32) it was 0.259 g; in assay [1] (Group XI, 100 mpk po bid, day 22-42, irradiation 7 Gy on day 32), 0.164 g; in assay [1] (Group XII, 100 mpk po bid, day 22-32, irradiation 7 Gy on day 32), 0.141 g; in assay [1] (Group XIII, 100 mpk po bid, day 32-42, irradiation 7 Gy on day 32), 0.214 g. In addition, the “effect of treatment on the effect of irradiation (statistical analysis)” value in assay [1] (both 50 and 100 mpk) was “potentiates the effect of irradiation”. Further, in assay [1] (pretreatment, both 50 and 100 mpk, plus irradiation), the “effect of pretreatment and irradiation on tumor weight compared to irradiation alone” value is “reduces tumor weight in a statistically significant manner”.
